The values below are quoted from earlier work in US9120722B1, “Optically active valine complex and a method for producing the same” (Wellman Biosciences Co. Ltd., priority 2014, dated 2015).

For this data set the following is noted: for Solubility in water of the sulfonic acid salt with L-valine: salts with L-valine, prior art U.S. Pat. No. 5,689,001 and No. 6,072,083.

On to `CC(C)[C@@H](N)C(=O)O` [D-valine], for which the “Solubility (aqueous solution)” value (room temperature, stated as known) is given as 8-10%.

With `CCc1ccc(S(=O)(=O)O)cc1` [p-ethylbenzene sulfonic acid], the “Solubility in water of the sulfonic acid salt with L-valine” value is recorded as 14.5%. For `CC(C)c1ccc(S(=O)(=O)O)cc1` [p-isopropylbenzene sulfonic acid], the “Solubility in water of the sulfonic acid salt with L-valine” value is 7.8%.
